Literature values as cited in patent US7858598B2, “Reagents for detection of hypochlorous acid” (Morningside Ventures Limited & Versitech Limited, priority 2007, dated 2010).

## OCl [hypochlorous acid]
  pKa: 7.6
